According to US20170342046A1, “Fatty Acid Cysteine-Based Conjugates and Their Use in Treating Medical Disorders” (Catabasis Pharmaceuticals, Inc., priority 2016, published 2017):

Assays:
[1] = test system: transcription factor Nrf2; test: Assay to evaluate Nrf2 activity: mRNA of Nrf2 gene expression targets by RT-PCR (HPRT internal control); type: cell-based, mouse; settings: for ΔmRNA/HPRT level for the NQO1 gene / ΔmRNA/HPRT level for the Gclc gene / ΔmRNA/HPRT level for the Gclm gene / ΔmRNA/HPRT level for the Gsta2 gene / ΔmRNA/HPRT level for the HMOX gene / ΔmRNA/HPRT level for the SRXN1 gene / ΔmRNA/HPRT level for the TXNRD1 gene: 24 hours, C2C12
Description: The transcription factor Nrf2 and its repressor Keap1 regulate a large network of antioxidant genes. The mitochondrial inner membrane is particularly susceptible to damage by reactive oxygen species. Antioxidants can play a large role in preserving the mitochondrial inner membrane and maintaining the integrity of the respiratory chain. Holmstrom et al. (BIOLOGY OPEN (2013) 2, p. 761-770) have also shown that the Nrf2 pathway can potentially control the NADH substrates that are needed for mitochondrial respiration. Activation of the Nrf2 pathway is a way of improving the mitochondrial bioenergetics. The compounds of the invention were evaluated in an assay that was designed to assess the various antioxidant genes that could be regulated by the transcription factor Nrf2.
(§1) Briefly, mouse C2C12 cells were treated with the test compounds when about 70% of the myotubes were differentiated (Day 13). For the assay, cells were treated with the test compounds for 24 hours in low glucose, 0.5% FBS DMEM and 0.1% BSA final concentration. The total RNA was harvested and the relative mRNA expression levels were assessed via RT-PCR with Hypoxanthine phosphoribosyltransferase (“HPRT”) as the internal control. Data were represented as the mean ΔmRNA/HPRT, error bars represent the standard error of the mean (SEM). Significance was determined by student's t-test in comparison to control. The Nrf2 gene expression targets include:
Gclc—Glutamate-cysteine ligase catalytic subunit; Gclm—Glutamate-cysteine ligase modifier subunit;
Gsta2—Glutathione S-transferase A2;
HMOX1—Heme oxygenase 1; NQO1—NAD(P)H dehydrogenase (quinone) 1;
TXNRD1—Thioredoxin reductase 1.
Compound I-1 was evaluated in this assay for any upregulation in the seven Nrf2 gene expression targets listed above.

mouse C2C12 cells = test: Signs of toxicity seen in the Nrf2 activity assay; type: cell-based
Protocol: as §1
The ΔmRNA/HPRT level for NQO1 was selected for this experiment. […] With this covalent conjugate, the two key bioactive components were the N-acetylcysteine amide (NACA) and the omega-3 fatty acid. […] However, the effect was modest and a high concentration of NACA was needed. […] In order to obtain the same level of activity as 12 μM of the fatty acid cysteine conjugate I-1, a much higher concentration of 2,500 μM of NACA was needed. In this assay, the omega-3 fatty acid DHA began to show signs of toxicity at concentration of >25 μM. […] In terms of combination of the individual components, the combination of A (consisting of 312.5 μM of NACA and 3.12 μM of DHA) and the combination of B (consisting of 625 μM of NACA and 6.25 μM of DHA) were used.

[2] = test system: transcription factor Nrf2; test: Assay to evaluate Nrf2 activity: mRNA of Nrf2 gene expression targets by RT-PCR (HPRT internal control); type: cell-based, mouse; settings: synergy experiment
C2C12 cells = test: Metabolic flux analysis: oxygen consumption rate (OCR) in Sea Horse XF96 under H2O2 stress; type: cell-based, mouse; settings: for OCR over time, bioenergetics: treated 4 hours prior to 1 mM H2O2 stress; for OCR corrected for antimycin A, mitochondrial bioenergetics / OCR upon the addition of FCCP: 1 mM H2O2 stress
Protocol: C2C12 cells were cultured in Sea Horse XF96 plates according to the manufacturer's instructions and established protocols (see www.seahorsebio.com/products/instruments/selection.php; Yao et al., PROC. NATL. ACAD. SCI. USA (2009) 106, p. 14670-14675).
On the day of the assay, cells were incubated with the compounds of the invention for either 4 hours or 24 hours. The short 4 hour incubation with the test compounds allowed one to evaluate for improvement of mitochondrial bioenergetics under the “scavengers” conditions (i.e. conditions in which the test compounds could effectively scavenge the various reactive oxygen species). The longer 24 hour incubation with the test compounds allowed one to evaluate for improvement of mitochondrial bioenergetics under the Nrf2 conditions (i.e. conditions in which the test compounds could effectively activate the Nrf2 antioxidant pathway in order to cope with the various reactive oxygen species). For these assays, H2O2 was used as the source of reactive oxygen species. Under the general stress test, cells were then exposed to either 500 μM of H2O2 or 1 mM of H2O2 for 4 hours before the evaluation in the Sea Horse system. Baseline measurements of the oxygen consumption rate (OCR) were taken before sequential injections of the various mitochondrial inhibitors. Readings were taken after addition of the mitochondrial inhibitor before injection of the subsequent inhibitors. The mitochondrial inhibitors that were used included oligomycin (1 μM), FCCP (1 μM) and Antimycin A (1 μM). Oligomycin is a known inhibitor ATP synthase; addition of this reagent essentially stopped the synthesis of ATP. Antimycin A inhibits the electron transport chain in the mitochondria. FCCP essentially uncouples the mitochondria and allows one to measure the maximum respiration. Measurements of the OCR following the addition of FCCP allows one to assess the mitochondrial content. An improvement in the OCR following the addition of FCCP is a reflection of the improvement in bioenergetics, when the proper control groups were put in place. The OCR were automatically calculated and recorded by the Sea Horse XF96 software. Ten measurements were taken at each of the indicated time points. Statistical significance in different treatment groups were determined by an ANOVA, followed by a Newman-Keuls post hoc analysis. Compounds I-1, I-3 and 1-5 were evaluated for mitochondrial bioenergetics under various conditions.

[3] = test system: human epithelial cells from CF patients with homozygous ΔF508 mutation; settings: 250 μM; cited from earlier work

CC/C=C\C/C=C\C/C=C\C/C=C\C/C=C\C/C=C\CCC(=O)O [DHA, all-cis-4,7,10,13,16,19-docosahexaenoic acid, reference compound]
mRNA level of the NQO1 gene ([1]; tested at up to 12 μM, FIG. 6): did not observe any upregulation | concentration at which signs of toxicity began to show (mouse C2C12 cells): > 25 µM

CC/C=C\C/C=C\C/C=C\C/C=C\C/C=C\C/C=C\CCC(=O)N[C@@H](CSSC(C)(C)CNC(=O)c1cccnc1)C(N)=O [I-1, N-(2-(((R)-3-amino-2-((4Z,7Z,10Z,13Z,16Z,19Z)-docosa-4,7,10,13,16,19-hexaenamido)-3-oxopropyl)disulfanyl)-2-methylpropyl)nicotinamide]
expression of mRNA of NQO1, dose response (FIG. 6) [2]: dose-dependent increase in the expression of mRNA of NQO1 | ΔmRNA/HPRT level for the NQO1 gene ([1]; 6.25 μM): an increase in the expression of mRNA | ΔmRNA/HPRT level for the Gclc gene ([1]; 12.5 μM): significant increase in the expression of mRNA | ΔmRNA/HPRT level for the Gclm gene ([1]; 12.5 μM): significant increase in the expression of mRNA | ΔmRNA/HPRT level for the Gsta2 gene ([1]; 12.5 μM): significant increase in the expression of mRNA | ΔmRNA/HPRT level for the HMOX gene ([1]; 12.5 μM): significant increase in the expression of mRNA | ΔmRNA/HPRT level for the NQO1 gene ([1]; 12.5 μM): two-fold increase | ΔmRNA/HPRT level for the SRXN1 gene ([1]; 12.5 μM): significant increase in the expression of mRNA | ΔmRNA/HPRT level for the TXNRD1 gene ([1]; 12.5 μM): significant increase in the expression of mRNA | ΔmRNA/HPRT level for the NQO1 gene ([1]; 1.56 to 3.12 μM): No significant increase | ΔmRNA/HPRT level for the Gclc gene ([1]; 1.56 to 6.25 μM): No significant increase | ΔmRNA/HPRT level for the Gclm gene ([1]; 1.56 to 6.25 μM): No significant increase | ΔmRNA/HPRT level for the Gsta2 gene ([1]; 1.56 to 6.25 μM): No significant increase | ΔmRNA/HPRT level for the HMOX gene ([1]; 1.56 to 6.25 μM): No significant increase | ΔmRNA/HPRT level for the SRXN1 gene ([1]; 1.56 to 6.25 μM): No significant increase | ΔmRNA/HPRT level for the TXNRD1 gene ([1]; 1.56 to 6.25 μM): No significant increase | Nrf2 pathway activation compared with individual components or their combination ([1]; NQO1 mRNA, FIG. 6): able to increase the Nrf2 pathway synergistically | concentration at which maximal response of NQO1 mRNA was observed ([1]; synergy experiment, FIG. 6): 12 µM | OCR over time, bioenergetics (FIG. 2A) (C2C12 cells; 1 μM and 10 μM, treated 24 hours prior to 500 μM H2O2 stress): significant improvement in bioenergetics, and the effect was dose-dependent | OCR upon the addition of FCCP (FIG. 1A) (C2C12 cells; 1 μM compound, treated 4 hours, then 500 μM H2O2 stress): significant restoration of the OCR upon the addition of FCCP, essentially to the same level observed with the normal control group and the positive control groups | OCR corrected for antimycin A, mitochondrial bioenergetics (FIG. 1B) (C2C12 cells; 1 μM or 10 μM, 4 hours, 500 μM H2O2 stress): restored mitochondrial bioenergetics to about the same level observed with normal cells | OCR corrected for antimycin A, bioenergetics (FIG. 2B) (C2C12 cells; 1 μM, 24 hours, 500 μM H2O2 stress): restored the bioenergetics to the same level observed with the normal control group | OCR upon the addition of FCCP (FIG. 1A) (C2C12 cells; 10 μM compound, treated 4 hours, then 500 μM H2O2 stress): significant restoration of the OCR upon the addition of FCCP, essentially to the same level observed with the normal control group and the positive control groups | OCR over time compared with control group and the two positive control groups (FIG. 2A) (C2C12 cells; 10 μM, 24 hours, 500 μM H2O2 stress): considerably higher | increase in the OCR compared with the two positive control groups (catalase or NAC) (FIG. 2B) (C2C12 cells; 10 μM, 24 hours, 500 μM H2O2 stress, corrected for antimycin A): ~4 fold

CC/C=C\C/C=C\C/C=C\C/C=C\C/C=C\C/C=C\CCC(=O)N[C@@H](CSSC(C)(C)CNC(=O)c1cccnc1)C(=O)O [I-3, N-((4Z,7Z,10Z,13Z,16Z,19Z)-docosa-4,7,10,13,16,19-hexaenoyl)-S-((2-methyl-1-(nicotinamido)propan-2-yl)thio)-L-cysteine]
OCR over time, bioenergetics (C2C12 cells; 1 μM and 10 μM): dose-dependent increase in bioenergetics | OCR corrected for antimycin A, mitochondrial bioenergetics (C2C12 cells; 10 μM, 4 hours): significant improvement in mitochondrial bioenergetics, essentially comparable to the positive control NAC

CC/C=C\C/C=C\C/C=C\C/C=C\C/C=C\C/C=C\CCC(=O)N[C@@H](CSSC(C)(C)CNC(=O)CC(O)C[N+](C)(C)C)C(N)=O (stereo partly drawn) [I-5, 4-((2-(((R)-3-amino-2-((4Z,7Z,10Z,13Z,16Z,19Z)-docosa-4,7,10,13,16,19-hexaenamido)-3-oxopropyl)disulfanyl)-2-methylpropyl)amino)-2-hydroxy-N,N,N-trimethyl-4-oxobutan-1-aminium]
OCR over time, bioenergetics (C2C12 cells; 1 μM and 10 μM): dose-dependent increase in bioenergetics | OCR corrected for antimycin A, mitochondrial bioenergetics (C2C12 cells; 10 μM, 4 hours): significant improvement in mitochondrial bioenergetics, essentially comparable to the two positive control arms, catalase or NAC

CC(=O)N[C@@H](CS)C(=O)O [NAC, N-acetyl cysteine, reference compound]
OCR upon the addition of FCCP (FIG. 1A) (C2C12 cells; 5 mM NAC positive control, 4 hours, 500 μM H2O2 stress): significant restoration of the OCR upon the addition of FCCP | OCR upon the addition of FCCP (C2C12 cells; 5 mM NAC positive control, 4 hours): increase in the OCR upon the addition of FCCP; almost to the same level observed with the normal control groups

NCCSSCCN [cystamine]
CFTR at the plasma membrane [3]: restoration of the CFTR to the plasma membrane | autophagy [3]: up-regulation of autophagy

catalase [reference compound]
OCR upon the addition of FCCP (FIG. 1A) (C2C12 cells; 5K U/mL catalase positive control, 4 hours, 500 μM H2O2 stress): significant restoration of the OCR upon the addition of FCCP | OCR upon the addition of FCCP (C2C12 cells; 5K U/mL catalase positive control, 4 hours): increase in the OCR upon the addition of FCCP; almost to the same level observed with the normal control groups
